Measured values reported in patent US20080044538A1, “Method For Pigment Solubilization, A pigment Composition And Its Use” (AKZO NOBEL N.V., priority 2004, published 2008).

Test: Solubilization of pigment from Lucantin Pink CWD into oil with water and surfactant; absorbance of filtered oil-phase
Settings: type A, mix 3 g, surfactant 2 g, Tobis fish-oil 35 g; for Absorbance at 474 nm after 1.5 days in refrigerator and filtration: 0.200 ml diluted to 10 ml

Substance | % recov. after 1.5 days in refrigerator and filtration | Absorbance at 474 nm after 1.5 days in refrigerator and filtration
Sorbitan monostearate | (30.7) % | 0.174
sorbitan monooleate [Sorbitan ester monooleate] | (27.4) % | 0.157
